From patent US11667649B2, “Heteroaromatic macrocyclic ether chemotherapeutic agents” (Nuvalent, Inc., priority 2020, dated 2023)
Like-named read-outs stand apart in the source and are kept apart here.

What was measured:
[1] = cc_pd bond, 12-membered ring
ALK-wt kinase domain = target: T1, ALK-wt kinase domain (Homo sapiens, UniProt Q9UM73); assay: Biochemical kinase assay, ALK-wt; conditions: 2 mM ATP substrate solution, read-out: Ki^app ALK-wt
T1 construct: TRKA-wt (1 nM, BPS Bio, 40280) kinase domains in buffer; purchased Carna 08-518
In short: (§1)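 Apparent Ki values come from fitting initial reaction rates against inhibitor concentration to the Morrison equation. Rates were taken from the linear phase of fluorogenic substrate phosphorylation (AQT0101 for ALK and ROS1, AQT0104 for TRKA; 26 μM in substrate solution with 2 mM ATP), monitored at 485 nm over 120 min at 30° C.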

[2] = target: T2, ALK L1196M/G1202R kinase domain (Homo sapiens, UniProt Q9UM73, G1202R/L1196M); assay: Biochemical kinase assay, ALK L1196M/G1202R; conditions: 2 mM ATP substrate solution, read-out: Ki^app ALK-L1196M-G1202R
T2 construct: TRKA-wt (1 nM, BPS Bio, 40280) kinase domains in buffer; purchased SignalChem A19-12NG
In short: as §1

ROS1-wt kinase domain = target: T3, ROS1-wt kinase domain (Homo sapiens, UniProt P08922); assay: Biochemical kinase assay, ROS1-wt; conditions: 2 mM ATP substrate solution, read-out: Ki^app ROS1-wt
T3 construct: TRKA-wt (1 nM, BPS Bio, 40280) kinase domains in buffer; purchased Carna 08-163
In short: as §1

[3] = target: T4, ROS1-G2032R kinase domain (Homo sapiens, UniProt P08922, G2032R); assay: Biochemical kinase assay, ROS1-G2032R; conditions: 2 mM ATP substrate solution, read-out: Ki^app ROS1-G2032R
T4 construct: TRKA-wt (1 nM, BPS Bio, 40280) kinase domains in buffer; purchased SignalChem R14-12BG
In short: as §1

TRKA-wt kinase domain = target: T5, TRKA-wt kinase domain (Homo sapiens, UniProt P04629); assay: Biochemical kinase assay, TRKA-wt; conditions: 2 mM ATP substrate solution, read-out: Ki^app TRKA-wt
T5 construct: TRKA-wt (1 nM, BPS Bio, 40280) kinase domains in buffer; purchased BPS Bio 40280
In short: as §1

Row | Compound | ring closure, yield after HPLC ([1]; from CCn1ncc(Cn2ccnc2-c2ccc(F)cc2C(C)Oc2cc(Br)cnc2N)c1Br, B2pin2/Pd(OAc)2/cataCXium A/NaOH, MeOH/H2O, 57.0 mM, 75.0 °C, 3.0 h) [%] | ring closure, yield after HPLC ([1]; from CC(Oc1cc(Br)cnc1N)c1cc(F)ccc1-n1nccc1Cc1cc(C#N)n(C)n1, Pd(OAc)2/cataCXium A/KOAc, 2-methyl-2-butanol, 20.0 mM, 120.0 °C) [%] | ring closure, yield after HPLC ([1]; from C[C@@H](Oc1cc(Br)cnc1N)c1cc(F)ccc1-c1nn(C)cc1Cn1cc(C#N)cn1, Pd(OAc)2/cataCXium A/KOAc, 2-methyl-2-butanol, 32.0 mM, 120.0 °C) [%] | ring closure, yield after HPLC ([1]; from CCc1cc(Cc2cn(C)nc2-c2ccc(F)cc2[C@@H](C)Oc2nc(Br)cnc2N)on1, Pd(OAc)2/cataCXium A/KOAc, 2-methyl-2-butanol, 20.0 mM, 120.0 °C, 6.0 h) [%] | Ki (ALK-wt kinase domain) [nM] | Ki [2] [nM] | Ki (ROS1-wt kinase domain) [nM] | Ki [3] [nM] | Ki (TRKA-wt kinase domain) [nM]
1 | CCn1ncc2c1-c1cnc(N)c(c1)OC(C)c1cc(F)ccc1-c1nccn1C2 (centres unmarked) | 10 | – | – | – | – | – | – | – | –
2 | CC1Oc2cc(cnc2N)-c2c(nn(C)c2C#N)Cc2ccnn2-c2ccc(F)cc21 (centres unmarked) | – | 17 | – | – | – | – | – | – | –
3 | C[C@H]1Oc2cc(cnc2N)-c2c(C#N)cnn2Cc2cn(C)nc2-c2ccc(F)cc21 | – | – | 15 | – | – | – | – | – | –
4 | CCc1noc2c1-c1cnc(N)c(n1)O[C@H](C)c1cc(F)ccc1-c1nn(C)cc1C2 | – | – | – | 24 | – | – | – | – | –
5 | CCc1nn(C)c2c1-c1cnc(N)c(c1)OCc1cc(F)ccc1-c1nn(C)cc1C2 [Compound 176] | – | – | – | – | < 50 | < 50 | < 50 | 50 to 500 | > 500
6 | CCn1ncc2c1-c1cnc(N)c(n1)OC(C)c1cc(F)ccc1-c1c(cnn1C)C2 (centres unmarked) [Compound 164] | – | – | – | – | < 50 | 50 to 500 | < 50 | < 50 | > 500
7 | CCn1ncc2c1-c1cnc(N)c(c1)O[C@H](C)c1cc(F)ccc1-c1ncoc1C2 [Compound 77] | – | – | – | – | < 50 | < 50 | < 50 | < 50 | 50 to 500
8 | CCn1nnc2c1-c1cnc(N)c(c1)O[C@H](C)c1cc(F)ccc1-c1ncc(F)cc1C2 [Compound 70] | – | – | – | – | < 50 | < 50 | < 50 | < 50 | 50 to 500
9 | Cc1nn(CC(F)F)c2c1Cc1cn(C)nc1-c1ccc(F)cc1[C@@H](C)Oc1cc-2cnc1N [Compound 79] | – | – | – | – | < 50 | < 50 | < 50 | < 50 | > 500
10 | C[C@H]1Oc2cc(cnc2N)-c2c(C#N)nn(C)c2Cc2ccccc2-c2ccc(F)cc21 [Compound 117] | – | – | – | – | < 50 | < 50 | < 50 | 50 to 500 | > 500
11 | C[C@H]1Oc2cc(cnc2N)-c2c(C#N)ncn2Cc2cc(F)cnc2-c2ccc(F)cc21 [Compound 63] | – | – | – | – | < 50 | < 50 | < 50 | < 50 | > 500
12 | COc1cc2n(n1)-c1ccc(F)cc1[C@@H](C)Oc1cc(cnc1N)-c1c(c(C)nn1CC1CC1)C2 [Compound 124] | – | – | – | – | < 50 | < 50 | < 50 | < 50 | 50 to 500
13 | CCc1nn(C)c2c1-c1cnc(N)c(c1)OCc1cc(F)ccc1-c1nc(C)sc1C2 [Compound 175] | – | – | – | – | < 50 | < 50 | < 50 | < 50 | 50 to 500
14 | CCn1ncc2c1-c1cnc(N)c(c1)OCc1cc(F)ccc1-n1nc(C)cc1C2 [Compound 69] | – | – | – | – | < 50 | < 50 | < 50 | < 50 | 50 to 500
15 | C[C@H]1Oc2cc(cnc2N)-c2c(C#N)cnn2Cc2cn(C)nc2-c2ccc(F)cc21 [Compound 9] | – | – | – | – | < 50 | < 50 | < 50 | < 50 | > 500
16 | CCc1nnn2c1-c1cnc(N)c(c1)O[C@H](C)c1cc(F)ccc1-c1ncc(F)cc1C2 [Compound 16] | – | – | – | – | < 50 | < 50 | < 50 | < 50 | 50 to 500
17 | C[C@H]1Oc2cc(cnc2N)-c2c(C#N)nn(C)c2Cc2scnc2-c2ccc(F)cc21 [Compound 94] | – | – | – | – | < 50 | < 50 | < 50 | < 50 | 50 to 500
18 | CCn1ncc2c1-c1cnc(N)c(c1)OC(C)c1cc(F)ccc1-c1ccncc1C2 (centres unmarked) [Compound 36] | – | – | – | – | < 50 | < 50 | < 50 | < 50 | 50 to 500

Row | Compound | ring closure, yield after HPLC ([1]; from CCn1ncc(Cn2ccnc2-c2ccc(F)cc2C(C)Oc2cc(Br)cnc2N)c1Br, B2pin2/Pd(OAc)2/cataCXium A/NaOH, MeOH/H2O, 57.0 mM, 75.0 °C, 3.0 h) [%] | ring closure, yield after HPLC ([1]; from CC(Oc1cc(Br)cnc1N)c1cc(F)ccc1-n1nccc1Cc1cc(C#N)n(C)n1, Pd(OAc)2/cataCXium A/KOAc, 2-methyl-2-butanol, 20.0 mM, 120.0 °C) [%] | ring closure, yield after HPLC ([1]; from C[C@@H](Oc1cc(Br)cnc1N)c1cc(F)ccc1-c1nn(C)cc1Cn1cc(C#N)cn1, Pd(OAc)2/cataCXium A/KOAc, 2-methyl-2-butanol, 32.0 mM, 120.0 °C) [%] | ring closure, yield after HPLC ([1]; from CCc1cc(Cc2cn(C)nc2-c2ccc(F)cc2[C@@H](C)Oc2nc(Br)cnc2N)on1, Pd(OAc)2/cataCXium A/KOAc, 2-methyl-2-butanol, 20.0 mM, 120.0 °C, 6.0 h) [%] | Ki (ALK-wt kinase domain) [nM] | Ki [2] [nM] | Ki (ROS1-wt kinase domain) [nM] | Ki [3] [nM] | Ki (TRKA-wt kinase domain) [nM]
19 | C[C@H]1Oc2cc(cnc2N)-c2c(C3CCC3)noc2Cc2cn(C)nc2-c2ccc(F)cc21 [Compound 26] | – | – | – | – | < 50 | < 50 | < 50 | < 50 | 50 to 500
20 | Cc1nn(CC2CC2)c2c1Cc1cccnc1-c1ccc(F)cc1[C@@H](C)Oc1cc-2cnc1N [Compound 135] | – | – | – | – | < 50 | < 50 | < 50 | < 50 | 50 to 500
21 | C[C@H]1Oc2cc(cnc2N)-c2c(nnn2CC2CC2)Cc2cc(C(F)(F)F)nn2-c2ccc(F)cc21 [Compound 128] | – | – | – | – | < 50 | < 50 | < 50 | < 50 | 50 to 500
22 | C[C@H]1Oc2cc(cnc2N)-c2c(C#N)ncn2Cc2cccnc2-c2ccc(F)cc21 [Compound 12] | – | – | – | – | < 50 | < 50 | < 50 | < 50 | > 500
23 | Cc1cc2n(n1)-c1ccc(F)cc1COc1cc(cnc1N)-c1c(cnn1CC1CC1)C2 [Compound 126] | – | – | – | – | < 50 | < 50 | < 50 | < 50 | > 500
24 | CCc1noc2c1-c1cnc(N)c(c1)O[C@H](C)c1cc(F)ccc1-c1nn(C)cc1C2 [Compound 19] | – | – | – | – | < 50 | < 50 | < 50 | < 50 | < 50
25 | C[C@H]1Oc2cc(cnc2N)-c2c(CC3CC3)nn(C)c2Cc2cn(C)nc2-c2ccc(F)cc21 [Compound 178] | – | – | – | – | < 50 | < 50 | < 50 | < 50 | 50 to 500
26 | CCn1ncc2c1-c1cnc(N)c(c1)OC(CO)c1cc(F)ccc1-c1nccn1C2 (centres unmarked) [Compound 166] | – | – | – | – | < 50 | 50 to 500 | < 50 | 50 to 500 | > 500
27 | C[C@H]1Oc2cc(cnc2N)-c2c(C(F)F)cnn2Cc2cc(F)cnc2-c2ccc(F)cc21 [Compound 17] | – | – | – | – | < 50 | 50 to 500 | < 50 | 50 to 500 | 50 to 500
28 | C[C@H]1Oc2cc(cnc2N)-c2c(cnn2CC(F)F)Cc2cc(C(F)(F)F)nn2-c2ccc(F)cc21 [Compound 84] | – | – | – | – | < 50 | < 50 | < 50 | < 50 | > 500
29 | C[C@H]1Oc2cc(cnc2N)-c2c(C#N)nn(C)c2Cc2cc(C(F)F)nn2-c2ccc(F)cc21 [Compound 132] | – | – | – | – | < 50 | < 50 | < 50 | < 50 | 50 to 500
30 | C[C@H]1Oc2cc(cnc2N)-c2c(nnn2CC2CC2)Cc2cc(F)cnc2-c2ccc(F)cc21 [Compound 106] | – | – | – | – | < 50 | < 50 | < 50 | < 50 | 50 to 500
31 | Cc1nn(CC2CC2)c2c1Cc1c(nn(C)c1Cl)-c1ccc(F)cc1[C@@H](C)Oc1cc-2cnc1N [Compound 54] | – | – | – | – | < 50 | < 50 | < 50 | < 50 | > 500
32 | CCn1ncc2c1-c1cnc(N)c(c1)O[C@H](C)c1cc(F)ccc1-c1nn(C(F)F)cc1C2 [Compound 86] | – | – | – | – | < 50 | 50 to 500 | < 50 | < 50 | > 500
33 | CCn1nc(OC)c2c1-c1cnc(N)c(c1)O[C@H](C)c1cc(F)ccc1-n1nc(C(F)F)cc1C2 [Compound 147] | – | – | – | – | < 50 | < 50 | < 50 | < 50 | < 50
34 | CCc1noc2c1-c1cnc(N)c(c1)O[C@H](C)c1cc(F)ccc1-c1nncn1C2 [Compound 120] | – | – | – | – | < 50 | 50 to 500 | < 50 | 50 to 500 | 50 to 500
35 | Cc1nc2c(s1)Cc1c(c(C#N)nn1C)-c1cnc(N)c(c1)O[C@H](C)c1cc(F)ccc1-2 [Compound 82] | – | – | – | – | < 50 | < 50 | < 50 | < 50 | 50 to 500
36 | CCn1ncc2c1-c1cnc(N)c(c1)O[C@H](C)c1cc(F)ccc1-c1ncc(OC)cc1C2 [Compound 149] | – | – | – | – | < 50 | < 50 | < 50 | < 50 | < 50
